Consider 5 compounds from paper PMC9983021, “Novel GluN2B-Selective NMDA Receptor Negative Allosteric Modulator Possesses Intrinsic Analgesic Properties and Enhances Analgesia of Morphine in a Rodent Tail Flick Pain Model” (ACS Chemical Neuroscience, 2023).

One may read the ED50 as the dose at which the effect has come halfway, by size or by number of responders.

Assay [1] has as its system C57BL/6J mice. The assay is described as follows: Hot water tail immersion test, compound alone (intrinsic antinociception). Type of assay: in vivo. The conditions noted are these: for dose at which significant increase in latency was achieved / dose at which significant latency increases were achieved: i.p.; for effect on tail flick latency vs vehicle / mean latency increase: i.p. 30 min prior to test; for effect on tail flick latency vs vehicle: n = 8 per group; for dose at which significant latency increases were achieved: lowest significant dose. From the text:
After evaluating EU93-108 in vitro, we next evaluated a panel of GluN2B inhibitors for their ability to produce an antinociceptive effect using a classical model of pain perception, determination of tail flick latency for mice when their tails are placed in hot water (Figures 4 and 5). The hot water tail immersion test is a well-validated method of assessing reflexive (i.e., spinal) pain-like response in rodents.[80]−[83] We interpret a drug-induced increase in tail flick latency as analgesia.
The inhibitors were injected i.p. 30 min prior to a hot water tail immersion test. Four treatment groups and one control group were used (n = 8 per group) where the control group received vehicle (10% DMSO, 20% PEG, 2% DMA in water) and groups 1 through 4 were randomly assigned one dose of the appropriate compound.
All animal studies performed at Emory have been approved by the Institutional Animal Care and Use Committee at Emory University. Male and female C57BL/6J mice weighing between 20 and 30 g were housed five per cage and given ad libitum access to food and water. The mice were 8–10 weeks of age at the time of experimentation. Animal holding rooms operated on a 12 h dark/light cycle with the dark cycle from 7:00 pm to 7:00 am. Mice were allowed to acclimate in cages for one week after arrival. The mice were handled regularly and habituated to scruffing and cloth restraint for 3–5 days prior to experimentation.
Mouse weights were recorded on the day of each experiment. Mice were given the appropriate treatment(s) 30 min prior to testing. All injection volumes were 10 mL/kg (e.g., 350 μL for a 35 g mouse). For the tail immersion experiments, each mouse was restrained with a Wypall cloth, leaving the tail exposed. The distal two-thirds of the tail was lowered into a sous vide water bath set to 48 °C, and a stopwatch with a resolution of 0.01 s was used to record the time elapsed between immersion and tail flick. Three recordings were taken for each mouse, and each data point is expressed as the mean of the three recordings. A cut-off time of 25 s was implemented to prevent tissue damage or scarring. For each experiment, the identities of the doses were coded by an independent researcher to ensure blinding. The identities were not decoded until the data were analyzed.
Prism 9.3.1 software (GraphPad, San Diego, CA) was used for all data analysis and visualization. Data for intrinsic antinociception was analyzed using one-way ANOVA and Dunnett’s post hoc test for multiple comparisons where each group was compared to vehicle. Data for acute morphine potentiation experiments were analyzed using one-way ANOVA and Tukey’s post hoc test for multiple comparisons was also used, where each group mean was compared to the mean of every other group. Data for tolerance experiments were analyzed using repeated measures two-way ANOVA and Bonferroni post hoc analysis. Data are presented as mean ± SEM and p < 0.05 constitutes significance.
On the technique in general: In hot-plate and tail-flick tests a longer latency is read as antinociception.

The test system of assay [2] is C57BL/6J mice. The experiment in a line: Preestablished morphine tolerance (tolerant mice, tail immersion test). It is filed as in vivo. The conditions noted are these: co-administered with morphine; males 10 mg/kg, females 20 mg/kg i.p. The text has this:
We next wanted to assess EU93-108 for effects on other facets of tolerance. Specifically, we were interested in whether EU93-108 could increase tail flick latency in mice that were already tolerant to morphine (i.e., preestablished tolerance). To assess the effect of EU93-108 on preestablished tolerance, five groups were used (n = 8 per group): vehicle/saline, vehicle/morphine, ifenprodil/morphine, EU93-108/saline, and EU93-108/morphine. All groups except for the vehicle/saline control group were administered morphine three times per day (according to the stair stepping protocol outlined in Figure 11) at gradually increasing doses from 25 to 40 mg/kg three times a day at 3–4 h intervals for three consecutive days until tolerance was observed on day 4 (Figure 12, black circles).
Figure 11 Dosing regimen to assess effects of EU93-108 on tolerant mice. TIT = tail immersion test. All mice received morphine or saline three times a day according to the protocol in Figure 9. Doses of morphine are shown above the arrows, in mg/kg. Once tolerance was established on day 4, the mice were randomly assigned to receive vehicle, EU93-108, or ifenprodil once a day for two consecutive days. […]
Mouse weights were recorded on the day of each experiment. […] Three recordings were taken for each mouse, and each data point is expressed as the mean of the three recordings. […] The identities were not decoded until the data were analyzed.
Prism 9.3.1 software (GraphPad, San Diego, CA) was used for all data analysis and visualization. Data for intrinsic antinociception was analyzed using one-way ANOVA and Dunnett’s post hoc test for multiple comparisons where each group was compared to vehicle. Data for acute morphine potentiation experiments were analyzed using one-way ANOVA and Tukey’s post hoc test for multiple comparisons was also used, where each group mean was compared to the mean of every other group. Data for tolerance experiments were analyzed using repeated measures two-way ANOVA and Bonferroni post hoc analysis. […]

In the case of `CS(=O)(=O)Nc1ccc(OC[C@@H](O)CNCCc2ccc(Cl)c(Cl)c2)cc1` [EU93-4], in the assay with C57BL/6J mice [1] (female mice), the “dose at which significant increase in latency was achieved” value is on record as 50 mg/kg and the “effect on tail flick latency vs vehicle” value is “significant increases in latency at the highest doses tested”. Besides, in the assay on C57BL/6J mice [1] (male mice), the mean latency increase worked out at 10 s, the “effect on tail flick latency vs vehicle” value is recorded as “significant increases in tail flick latency at 50 mg/kg” and the “dose at which significant latency increases were achieved” value is recorded as 50 mg/kg.

Take `C[C@H](CN1CCC(Cc2ccccc2)CC1)[C@H](O)c1ccc(O)cc1` [Ro25-6981, reference compound]: the “effect on tail flick latency vs vehicle” value in the assay on C57BL/6J mice [1] (female mice) is on record as “did not produce any significant increases in latency at the doses tested”; in the assay with C57BL/6J mice [1] (male mice) it was “did not display significant increases in latency at the doses tested”.

With `CCCCN(CCc1ccc(Cl)c(Cl)c1)C[C@H](O)COc1ccc(NS(C)(=O)=O)cc1` [EU93-31], in the assay on C57BL/6J mice [1] (female mice), the “dose at which significant increase in latency was achieved” value was determined as 100 mg/kg and the “effect on tail flick latency vs vehicle” value is “significant increases in latency at the highest doses tested”. Besides, in the assay on C57BL/6J mice [1] (male mice), the mean latency increase turned out to be 10 s; the “effect on tail flick latency vs vehicle” value is “significant increases in latency at the two highest doses tested (50 and 100 mg/kg)”; the “dose at which significant latency increases were achieved” value is 50 mg/kg.

In the case of `CC(C(O)c1ccc(O)cc1)N1CCC(Cc2ccccc2)CC1` (stereo not shown) [ifenprodil, reference compound], the “effect on tail flick latency vs vehicle” value in the assay with C57BL/6J mice [1] (female mice) is reported as “did not produce any significant increases in latency at the doses tested”; in the assay with C57BL/6J mice [1] (male mice) it was “did not display significant increases in latency at the doses tested”. In addition, the “tail flick latency in morphine-tolerant mice, day 5 vs day 4” value in the assay with C57BL/6J mice [2] is “continued to decrease on day 5”.

Turning to `CN1CC[C@]23c4c5ccc(O)c4O[C@H]2[C@@H](O)C=C[C@H]3[C@H]1C5` [Morphine], the ED50 in the assay with C57BL/6J mice [1] (Mus musculus, sc, 0.5 h, read-out: ED50 (tail flick latency), morphine dose-response curve) was 5.15 mg/kg.
